Entries after “also recorded” stand apart in the source; their conditions may differ. Ends that are not written are not given here.
Columns and labels:
[1] = test system: lymphocytes; experiment: Apoptosis of lymphocytes (Annexin-V/7-AAD); type: cell-based, human; conditions: 1 J/cm^2 and 100 ng/mL
Method: (§1) Lymphocytes were treated with 8-MOP (100 ng/mL) and UVA (1 J/cm^2), washed with PBS, and co-cultured in complete media at 37° C. and 5% CO2 with either PUVA-treated or untreated-MoDC in a ratio of 5 or 10 lymphocytes to 1 MoDC. MoDC treated for 24 hr with 100 nM dexamethasone (Sigma) served as the positive control group. After 24 hr, cells were harvested and MoDC were re-purified. […] CD11c^+ MoDC were re-plated at 0.5-1.0×10^6 cells/mL in complete media and stimulated with 100 ng/mL LPS (Sigma). 24 hr after LPS stimulation, cells were harvested for RNA isolation and immunophenotyping, and supernatants were collected for cytokine quantification.
Monoclonal antibodies included HLA-DR, CD80, CD83, CD3, CD86, CD14, CD11c and GILZ. Antibodies were obtained from Beckman-Coulter and eBioscience and were used at their pre-determined optimal dilutions. Apoptosis was assessed using the Annexin-V Apoptosis Detection Kit (eBioscience), with Annexin-V recognizing phosphatidylserine (PS) on the surface of apoptotic cells. 7-AAD substituted for PI as the cell viability dye. […] Background staining was established with appropriate isotype and fluorescence minus one controls. Immunofluorescence was analyzed using a FACSCalibur L (BD Biosciences) within 2 hr of fixation with 2% paraformaldehyde. […]

[2] = test system: MoDC; experiment: Immunophenotyping of MoDC (HLA-DR, CD80, CD83, CD86, intracellular GILZ); type: cell-based, human; conditions: product of 8-MOP and UVA exceeded 100; 24 hr after PUVA
Method: as §1
Monoclonal antibodies included HLA-DR, CD80, CD83, CD3, CD86, CD14, CD11c and GILZ. Antibodies were obtained from Beckman-Coulter and eBioscience and were used at their pre-determined optimal dilutions. Apoptosis was assessed using the Annexin-V Apoptosis Detection Kit (eBioscience), with Annexin-V recognizing phosphatidylserine (PS) on the surface of apoptotic cells. 7-AAD substituted for PI as the cell viability dye. Cells displaying an Annexin-V^+/7-AAD^− phenotype were classified as early apoptotic cells, and cells displaying an Annexin-V^+/7-AAD^+ phenotype were classified as late apoptotic cells. Dual membrane and intracytoplasmic staining was performed using the IntraPrep fix and permeabilization kit (Beckman-Coulter). Background staining was established with appropriate isotype and fluorescence minus one controls. Immunofluorescence was analyzed using a FACSCalibur L (BD Biosciences) within 2 hr of fixation with 2% paraformaldehyde. A minimum of 10,000 events were collected for each group.

[3] = test system: GILZ; experiment: GILZ expression in plate-passed PBMC treated with 8-MOP and UVA; type: cell-based; conditions: monocytes physically activated by passage through device, then 8-MOP and UVA
Method: Monocytes were passed through a device derived from the Therakos system. The dimensions of the flow chamber were 30 mm width, 1600 mm length, and 1 mm height. In brief, a blood sample was spun at low speed through a Ficoll gradient to obtain e.g. 80 ml of sample with a concentration of peripheral blood mononuclear cells (PBMC) of e.g. 1.5*10^6 cells/ml. The chamber was pre-coated with platelets. The sample was passed through the chamber for 60 min at a flow rate of about 24 ml/min corresponding to a shear stress of about 0.13 Pa. The collected activated monocytes were spun at low speed and resuspended in a small volume of medium comprising 8-MOP and irradiated with […], incubated for a day and used for further analysis (Day 1PBMC+PP). As a control PBMCs were not passed through the device and incubated for a day (Day 1 PBMC). Further, PBMC were analyzed directly after harvest through a Ficoll gradient (Day0 PBMC). Day 1 PBMC+PP were then further treated with 8-MOP and UVA (PUVA). The cells and controls were then analyzed for expression of GILZ.

[4] = test system: platelets; experiment: Platelet adhesion studies in Vena8 flow chamber; type: cell-based, human
Method: For experiments not involving the collection and phenotyping of cells post-flow, Vena8 biochips (Cellix Ltd, Dublin, Ireland) were used to generate laminar flow. The volumetric flow path for a channel of the Vena8 biochips measured 20000×400×100 microns (length×width×height). Protein coating of these chips is described in the appropriate section below.
Platelet adhesion experiments were performed using the Vena8 flow chamber described above. Fibrinogen and fibronectin (Sigma) were dissolved in PBS to a final concentration of 200 mcg/ml. Channels of the Vena8 chips were incubated at room temperature in a humidified chamber for 2 hours with the protein solution, autologous plasma, or PBS alone. The channels were washed with 5× the volume RPMI. Platelet-rich-plasma was then perfused through the protein-coated channel at the indicated shear-stress, held constant. For each channel, still images were acquired exactly 90 seconds into the experiment at 4 pre-defined low power fields located along the flow path (fields were centered at 2500, 7500, 12500, and 17500 microns from the start point of infusion).
Some experiments involved pre-treating platelet-rich-plasma with protein fragments prior to infusion through the channels. Small RGD peptides, containing the amino-acid sequence Arg-Gly-Asp-Ser; DRG peptides, contain the amino-acid sequence Ser-Asp-Gly-Arg; or fragment 400-411 of fibrinogen, containing the amino-acid sequence His-His-Leu-Gly-Gly-Ala-Lys-Gln-Ala-Gly-Asp-Val, were incubated at a concentration of 2 mM with PRP for 20 minutes at room temperature. The PRP was then perfused through the channels as previously described.

[5] = test system: monocytes; experiment: Static co-cultures of platelets with monocytes; type: cell-based, human; conditions: static conditions, 18 hours
Method: Experiments involving co-cultures of monocytes with additional platelets were performed as described in the Overnight Culture section, with a few necessary modifications. Following Ficoll-Hypaque separation, mononuclear cells were resuspended in 30% AB serum/RMPI to a final concentration of 10×10^6 cells/ml, of which 1 ml was allocated to each well of a 16-well plate. An additional 1 ml of platelets (suspended in RPMI, at 2× the desired final concentration) or RPMI without platelets was then added to each well. To activate platelets, 500 μl containing 2 units of thrombin was added to half the wells, and 500 μl of RPMI was added to the others to balance the volume. Cells were then incubated as described previously.

COc1c2occc2cc2ccc(=O)oc12 [8-MOP, 8-methoxypsoralen]
Time to Annexin-V display by lymphocytes [1]: 2 h | Reduction of CD80 cell surface expression [2]: 30% | Reduction of CD83 cell surface expression [2]: 31% | Reduction of CD86 cell surface expression [2]: 54% | GILZ expression / differentiation of activated monocytes [3]: can be channeled into immuno-suppressive dendritic cells; also recorded: increase of expression of GILZ

Arg-Gly-Asp-Ser (RGDS; printed: Arg-Gly-Asp-Ser) [RGD peptides, Small RGD peptides]
Platelet adhesion to fibronectin-coated plates ([4]; platelets (PRP) pre-incubated with 2 mM peptide for 20 minutes, flow): decreased

HHLGGAKQAGDV [fragment 400-411 of fibrinogen]
Platelet adhesion to fibrinogen-coated plates ([4]; platelets (PRP) pre-incubated with 2 mM peptide for 20 minutes, flow, listed as gamma fragments): decreased

fibrinogen
Platelet adhesion to plates pre-coated with the protein ([4]; unactivated platelets in flow, wall shear stress 0.2 to 6.0 dyne/cm^2): highest concentrations of platelets adhered

thrombin
Monocyte differentiation versus cultures with platelets not activated by thrombin [5]: did not cause a discernible difference

From patent US20220259556A1, “METHOD FOR OBTAINING IMMUNO-SUPPRESSIVE DENDRITIC CELLS” (Transimmune AG, priority 2013, published 2022)
